Our source for the pest or weed control values is patent US20110086759A1, “CHEMICAL COMPOUNDS” (SYNGENTA CROP PROTECTION, INC., priority 2007, published 2011).

Common to all, as to type: in vivo
Assay [1] concerns Amaranthus retoflexus (AMARE). As to the kind of experiment: Pre-emergence biological efficacy, glasshouse pot test. As to conditions: Amaranthus retroflexus, 312 h. The essentials:
(§1)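 Seeds sown in standard soil in pots, held one day in glasshouse (24/16 °C day/night, 14 h light, 65% humidity), then sprayed with aqueous solution from acetone/water (50:50) formulation with 0.5% Tween 20 at 1000 or 250 g/ha. Damage scored after 13 days (0 = none, 100 = total).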

In assay [2] the test system is Solanum nigrum (SOLNI). The assay is described as above. Particulars: 312 h. In outline: as §1
Assay [3] relates to Setaria faberi (SETFA). Described as above. Particulars: 312 h. The essentials: as §1
The subject of assay [4] is Alopecurus myosuroides (ALOMY). The assay is described as above. Particulars: 312 h. The essentials:
as §1

Assay [5] concerns Ipomea hederaceae (IPOHE). The description is as above. Particulars: Ipomoea hederacea, 312 h. In outline:
as §1

Assay [6] concerns Echinochloa crus-galli (ECHCG). The description is as above. As to conditions: 312 h. The essentials:
as §1

Assay [7] relates to Amaranthus retoflexus (AMARE). As to the kind of experiment: Post-emergence biological efficacy, glasshouse pot test. As to conditions: Amaranthus retroflexus, 312 h. In outline:
(§2)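 Plants were sown in standard soil and grown 8 days in a glasshouse (24/16° C. day/night, 14 hours light, 65% humidity), then sprayed post-emergence at 1000 or 250 g/ha from acetone/water (50:50) with 0.5% Tween 20. Damage was scored visually after 13 days (0 = none, 100 = total).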

The test system of assay [8] is Solanum nigrum (SOLNI). The assay is described as above. As to conditions: 312 h. In outline:
as §2

Assay [9] has as its system Setaria faberi (SETFA). The description is as above. Particulars: 312 h. In outline:
as §2

In assay [10] the test system is Alopecurus myosuroides (ALOMY). The assay is described as above. Particulars: 312 h. The essentials:
as §2

Assay [11] has as its system Ipomea hederaceae (IPOHE). The description is as above. As to conditions: Ipomoea hederacea, 312 h. In outline: as §2
The test system of assay [12] is Echinochloa crus-galli (ECHCG). The description is as above. As to conditions: 312 h. The essentials: as §2
Setting [13] is: pre-emergence, 1,000 g/ha, evaluated after 13 days (100=total damage; 0=no damage), read-out: Percentage damage AMARE.
[14] abbreviates: pre-emergence, 1,000 g/ha, evaluated after 13 days (100=total damage; 0=no damage), read-out: Percentage damage SOLNI.
The mark [15] stands for this setting: pre-emergence, 1,000 g/ha, evaluated after 13 days (100=total damage; 0=no damage), read-out: Percentage damage SETFA.
The mark [16] stands for this setting: pre-emergence, 1,000 g/ha, evaluated after 13 days (100=total damage; 0=no damage), read-out: Percentage damage ALOMY.
The mark [17] stands for this setting: pre-emergence, 1,000 g/ha, evaluated after 13 days (100=total damage; 0=no damage), read-out: Percentage damage IPOHE.
Setting [18] is: pre-emergence, 1,000 g/ha, evaluated after 13 days (100=total damage; 0=no damage), read-out: Percentage damage ECHCG.
Where [19] appears, read: post-emergence, 1,000 g/ha, evaluated after 13 days (100=total damage; 0=no damage), read-out: Percentage damage caused to weed species, AMARE.
[20] abbreviates: post-emergence, 1,000 g/ha, evaluated after 13 days (100=total damage; 0=no damage), read-out: Percentage damage caused to weed species, SOLNI.
Where [21] appears, read: post-emergence, 1,000 g/ha, evaluated after 13 days (100=total damage; 0=no damage), read-out: Percentage damage caused to weed species, SETFA.
[22] abbreviates: post-emergence, 1,000 g/ha, evaluated after 13 days (100=total damage; 0=no damage), read-out: Percentage damage caused to weed species, ALOMY.
[23] abbreviates: post-emergence, 1,000 g/ha, evaluated after 13 days (100=total damage; 0=no damage), read-out: Percentage damage caused to weed species, IPOHE.
Where [24] appears, read: post-emergence, 1,000 g/ha, evaluated after 13 days (100=total damage; 0=no damage), read-out: Percentage damage caused to weed species, ECHCG.
The mark [25] stands for this setting: pre-emergence, rate 1,000 g/ha, evaluated after 13 days (100=total damage to plant; 0=no damage), read-out: Percentage damage caused to weed species, AMARE.
The mark [26] stands for this setting: pre-emergence, rate 1,000 g/ha, evaluated after 13 days (100=total damage to plant; 0=no damage), read-out: Percentage damage caused to weed species, SOLNI.
The mark [27] stands for this setting: pre-emergence, rate 1,000 g/ha, evaluated after 13 days (100=total damage to plant; 0=no damage), read-out: Percentage damage caused to weed species, SETFA.
The mark [28] stands for this setting: pre-emergence, rate 1,000 g/ha, evaluated after 13 days (100=total damage to plant; 0=no damage), read-out: Percentage damage caused to weed species, ALOMY.
The mark [29] stands for this setting: pre-emergence, rate 1,000 g/ha, evaluated after 13 days (100=total damage to plant; 0=no damage), read-out: Percentage damage caused to weed species, IPOHE.
Where [30] appears, read: pre-emergence, rate 1,000 g/ha, evaluated after 13 days (100=total damage to plant; 0=no damage), read-out: Percentage damage caused to weed species, ECHCG.
[31] abbreviates: Rate 1,000 g/ha, post-emergence spray, evaluated after 13 days (100=total damage to plant; 0=no damage to plant), read-out: Percentage damage caused to weed species, post-emergence, AMARE.
The mark [32] stands for this setting: Rate 1,000 g/ha, post-emergence spray, evaluated after 13 days (100=total damage to plant; 0=no damage to plant), read-out: Percentage damage caused to weed species, post-emergence, SOLNI.
Setting [33] is: Rate 1,000 g/ha, post-emergence spray, evaluated after 13 days (100=total damage to plant; 0=no damage to plant), read-out: Percentage damage caused to weed species, post-emergence, SETFA.
[34] abbreviates: Rate 1,000 g/ha, post-emergence spray, evaluated after 13 days (100=total damage to plant; 0=no damage to plant), read-out: Percentage damage caused to weed species, post-emergence, ALOMY.
Where [35] appears, read: Rate 1,000 g/ha, post-emergence spray, evaluated after 13 days (100=total damage to plant; 0=no damage to plant), read-out: Percentage damage caused to weed species, post-emergence, IPOHE.
The mark [36] stands for this setting: Rate 1,000 g/ha, post-emergence spray, evaluated after 13 days (100=total damage to plant; 0=no damage to plant), read-out: Percentage damage caused to weed species, post-emergence, ECHCG.

Consider `COC(=O)c1nc(C2CC2)nc(NCc2ccccc2N2CCOCC2)c1Cl` [Compound 4-88, 5-Chloro-2-cyclopropyl-6-methoxycarbonyl-4-(2-morpholin-4-yl-phenylmethyl-amino)-pyrimidine], for which the pest or weed control at 1000 g/ha in assay [1] (setting [13]) was found to be 70%; in the assay with Solanum nigrum (SOLNI) [2] (setting [14]) it was 70%; in the assay on Setaria faberi (SETFA) [3] (setting [15]), 20%; in assay [4] (setting [16]) it was 40%; in assay [5] (setting [17]), 100%; in [6] (setting [18]), 50%. Also, the pest or weed control at 1000 g/ha in assay [7] (setting [19]) amounted to 100%; with Solanum nigrum (SOLNI) [8] (setting [20]) it was 80%; with Setaria faberi (SETFA) [9] (setting [21]) it was 60%; in assay [10] (setting [22]), 50%; in assay [11] (setting [23]) it was 80%; in assay [12] (setting [24]), 60%.

As to `COC(=O)c1nc(-c2ccc(Cl)c(C(F)(F)F)c2F)nc(NCc2ccco2)c1Cl` [Compound 230-48, 5-Chloro-2-(4-chloro-2-fluoro-3-trifluoro-methylphenyl)-4-(furan-2-ylmethyl-amino)-6-methoxy-carbonylpyrimidine], the pest or weed control at 1000 g/ha in [1] (setting [25]) is 70%; in the assay with Solanum nigrum (SOLNI) [2] (setting [26]), 70%; in the assay on Setaria faberi (SETFA) [3] (setting [27]), 50%; in [4] (setting [28]), 30%; in assay [5] (setting [29]), 50%; in assay [6] (setting [30]), 20%. Besides, the pest or weed control at 1000 g/ha in [7] (setting [31]) came to 100%; in the assay with Solanum nigrum (SOLNI) [8] (setting [32]) it was 80%; in the assay on Setaria faberi (SETFA) [9] (setting [33]), 70%; in [10] (setting [34]), 30%; in [11] (setting [35]), 60%; in [12] (setting [36]) it was 90%.

For `COC(=O)c1nc(C2CC2)nc(N[C@H](CO)c2ccccc2)c1Cl` [4-203 (S), 5-Chloro-2-cyclopropyl-4-[(1S)-2-hydroxy-1-phenyl-ethylamino]-6-methoxycarbonyl-pyrimidine], the pest or weed control at 1000 g/ha came to 70% in assay [1] (setting [13]); 80% with Solanum nigrum (SOLNI) [2] (setting [14]); 40% in the assay on Setaria faberi (SETFA) [3] (setting [15]); 20% in assay [4] (setting [16]); 80% in assay [5] (setting [17]); 20% in [6] (setting [18]). Also, the pest or weed control at 1000 g/ha turned out to be 100% in assay [7] (setting [19]); 80% with Solanum nigrum (SOLNI) [8] (setting [20]); 50% with Setaria faberi (SETFA) [9] (setting [21]); 30% in assay [10] (setting [22]); 70% in assay [11] (setting [23]); 30% in [12] (setting [24]).

Consider `COC(=O)c1nc(C2CC2)nc(NCCCN2CCCCC2C)c1Cl` (stereo not drawn) [Compound 4-247, 5-Chloro-2-cyclopropyl-6-methoxycarbonyl-4-[3-(2-methyl-piperidin-1-yl)-propylamino]-pyrimidine], for which the pest or weed control at 1000 g/ha turned out to be 30% in [1] (setting [13]); 70% in the assay with Solanum nigrum (SOLNI) [2] (setting [14]); 10% in the assay on Setaria faberi (SETFA) [3] (setting [15]); 10% in assay [4] (setting [16]); 20% in assay [5] (setting [17]); 10% in assay [6] (setting [18]). In addition, the pest or weed control at 1000 g/ha in [7] (setting [19]) was 100%; in the assay on Solanum nigrum (SOLNI) [8] (setting [20]), 50%; in the assay with Setaria faberi (SETFA) [9] (setting [21]), 20%; in assay [10] (setting [22]), 10%; in [11] (setting [23]) it was 50%; in assay [12] (setting [24]), 20%.

For `COC(=O)c1nc(C2CC2)nc(N(Cc2ccccc2)CC(O)c2ccccc2)c1Cl` (stereo not drawn) [Compound 155-257, 5-Chloro-2-cyclopropyl-4-[N-(2-hydroxy-2-phenylethyl)-N-phenylmethyl-amino]-6-methoxycarbonyl-pyrimidine], the pest or weed control at 1000 g/ha in assay [1] (setting [25]) stood at 30%; in the assay on Solanum nigrum (SOLNI) [2] (setting [26]), 10%; in the assay with Setaria faberi (SETFA) [3] (setting [27]), 20%; in [4] (setting [28]), 10%; in assay [5] (setting [29]), 30%; in [6] (setting [30]) it was 10%. In addition, the pest or weed control at 1000 g/ha in [7] (setting [31]) was 90%; with Solanum nigrum (SOLNI) [8] (setting [32]) it was 80%; in the assay on Setaria faberi (SETFA) [9] (setting [33]), 50%; in [10] (setting [34]), 20%; in assay [11] (setting [35]) it was 50%; in assay [12] (setting [36]) it was 0%.

Consider `COC(=O)c1nc(C2CC2)nc(NCCc2ccccc2)c1Cl` [Compound 4-221, 5-Chloro-2-cyclopropyl-6-methoxycarbonyl-4-(2-phenylethyl-amino)-pyrimidine], for which the pest or weed control at 1000 g/ha in [1] (setting [13]) is 100%; in the assay on Solanum nigrum (SOLNI) [2] (setting [14]) it was 90%; in the assay with Setaria faberi (SETFA) [3] (setting [15]), 60%; in [4] (setting [16]), 60%; in assay [5] (setting [17]), 100%; in assay [6] (setting [18]), 60%. Besides, the pest or weed control at 1000 g/ha in assay [7] (setting [19]) is 100%; in the assay on Solanum nigrum (SOLNI) [8] (setting [20]), 80%; with Setaria faberi (SETFA) [9] (setting [21]), 70%; in assay [10] (setting [22]), 30%; in assay [11] (setting [23]) it was 100%; in [12] (setting [24]) it was 40%.

For `CCN(Cc1ccnc(C)n1)c1nc(C2CC2)nc(C(=O)OC)c1Cl` [Compound 6-161, 5-Chloro-2-cyclopropyl-4-[N-ethyl-N-(2-methylpyrimidin-4-ylmethyl)-amino]-6-methoxycarbonyl-pyrimidine], the pest or weed control at 1000 g/ha in [1] (setting [25]) stood at 100%; with Solanum nigrum (SOLNI) [2] (setting [26]) it was 20%; in the assay on Setaria faberi (SETFA) [3] (setting [27]), 0%; in assay [4] (setting [28]), 0%; in assay [5] (setting [29]), 80%; in assay [6] (setting [30]) it was 0%. For the same compound, the pest or weed control at 1000 g/ha in assay [7] (setting [31]) was determined as 70%; in the assay on Solanum nigrum (SOLNI) [8] (setting [32]) it was 70%; with Setaria faberi (SETFA) [9] (setting [33]) it was 30%; in assay [10] (setting [34]), 0%; in assay [11] (setting [35]) it was 80%; in assay [12] (setting [36]), 0%.
